Activity calls are given as the source filed them. The rule behind the calls is not given here.
Legend:
[1] = Cmax in rat plasma at 5 mg/kg, po measured up to 24 hrs by LC-MS/MS analysis; format: ADME, organism-based
[2] = AUClast in rat plasma at 5 mg/kg, po measured up to 24 hrs by LC-MS/MS analysis; format: ADME, organism-based
[3] = Tmax in mouse plasma at 2 mg/kg, iv measured up to 24 hrs by LC-MS/MS analysis; format: ADME, organism-based
[4] = Volume of distribution at steady state in mouse plasma at 2 mg/kg, iv measured up to 24 hrs by LC-MS/MS analysis; format: ADME, organism-based; settings: read-out: Vdss
[5] = Tmax in mouse plasma at 10 mg/kg, po measured up to 24 hrs by LC-MS/MS analysis; format: ADME, organism-based
[6] = Tmax in dog plasma at 1 mg/kg, iv measured up to 24 hrs by LC-MS/MS analysis; format: ADME, organism-based, Canis lupus familiaris
[7] = Tmax in dog plasma at 5 mg/kg, po measured up to 24 hrs by LC-MS/MS analysis; format: ADME, organism-based, Canis lupus familiaris
[8] = Half life in dog plasma at 5 mg/kg, po measured up to 24 hrs by LC-MS/MS analysis; format: ADME, organism-based, Canis lupus familiaris
[9] = Oral bioavailability in dog plasma at 5 mg/kg measured up to 24 hrs by LC-MS/MS analysis; format: ADME, organism-based, Canis lupus familiaris
[10] = Half life in monkey plasma at 5 mg/kg, po measured up to 24 hrs by LC-MS/MS analysis; format: ADME, organism-based, Macaca mulatta; settings: rhesus monkey
[11] = test system: BaF3; assay: Antiproliferative activity against mouse BaF3 cells harbouring FLT3-ITD assessed as inhibition of cell growth incubated for 72 hrs by celltiter-glo luminescent cell viability assay; format: functional, cell-based; settings: BaF3, 72 h
[12] = test system: BaF3; assay: Antiproliferative activity against mouse BaF3 cells harbouring FLT3-ITD-D835Y mutant assessed as inhibition of cell growth incubated for 72 hrs by celltiter-glo luminescent cell viability assay; format: functional, cell-based; settings: BaF3, 72 h
[13] = test system: Receptor-type tyrosine-protein kinase FLT3 (Homo sapiens), P36888 [UNDEFINED MUTATION]; assay: Inhibition of FLT3 in human MV4-11 cells harbouring FLT3-ITD mutant assessed as effect on FLT3 protein level at 1 to 1000 nM measured after 2 hrs by Western blot analysis; format: cell-based; settings: dose 1-1000 nM
[14] = test system: Receptor-type tyrosine-protein kinase FLT3 (Homo sapiens), P36888 [UNDEFINED MUTATION]; assay: Inhibition of FLT3 in human MV4-11 cells harbouring FLT3-ITD mutant assessed as effect on ERK protein level at 1 to 1000 nM measured after 2 hrs by Western blot analysis; format: cell-based; settings: dose 1-1000 nM
[15] = molecular target: Receptor-type tyrosine-protein kinase FLT3 (Homo sapiens) (UniProt P36888); assay: Inhibition of FLT3 in human MV4-11 cells harbouring FLT3-ITD mutant assessed as effect on STAT5 protein level at 1 to 1000 nM measured after 2 hrs by Western blot analysis; format: cell-based; settings: dose 1-1000 nM
[16] = molecular target: Discoidin domain-containing receptor 2 (Homo sapiens, UniProt Q16832, T654M); assay: Inhibition of human DDR2 T654M mutant by biochemical kinase binding assay
[17] = molecular target: Mast/stem cell growth factor receptor Kit (Homo sapiens, UniProt P10721, Y823D); assay: Inhibition of human KIT Y823D mutant by biochemical kinase binding assay
[18] = molecular target: Proto-oncogene tyrosine-protein kinase receptor Ret (Homo sapiens, UniProt P07949, G691S); assay: Inhibition of human RET G691S mutant by biochemical kinase binding assay
[19] = molecular target: Cytochrome P450 2B6 (Homo sapiens, UniProt P20813); assay: Inhibition of CYP2B6 in human liver microsomes by UPLC-MS/MS analysis; format: ADME, Microsome
[20] = molecular target: Cytochrome P450 2C8 (Homo sapiens, UniProt P10632); assay: Inhibition of CYP2C8 in human liver microsomes by UPLC-MS/MS analysis; format: ADME, Microsome
[21] = molecular target: Cytochrome P450 2D6 (Homo sapiens, UniProt P10635); assay: Inhibition of CYP2D6 in human liver microsomes by UPLC-MS/MS analysis; format: ADME, Microsome
[22] = molecular target: Cytochrome P450 3A4 (Homo sapiens, UniProt P08684); assay: Inhibition of CYP3A4 in human liver microsomes by UPLC-MS/MS analysis; format: ADME, Microsome
[23] = Toxicity in NOD/SCID mouse assessed as effect on body weight at 20 mg/kg/day, po measured for 7 days; format: organism-based; settings: in vivo, 168 h, time 7 day
[24] = test system: MOLM-13; assay: Antitumor activity against human MOLM-13 cells xenografted in NOD/SCID mouse model assessed as tumor growth inhibition at 0.5 mg/kg/day, po by caliper analysis relative to control; format: functional; settings: read-out: TGI
[25] = test system: MOLM-13; assay: Antitumor activity against human MOLM-13 cells xenografted in NOD/SCID mouse model assessed as tumor growth inhibition at […], po by caliper analysis relative to control; format: functional; settings: dose 1.5 mg/kg/day, read-out: TGI
[26] = test system: MOLM-13; assay: Antitumor activity against human MOLM-13 cells xenografted in NOD/SCID mouse model assessed as tumor growth inhibition at 4.5 mg/kg/day, po by caliper analysis relative to control; format: functional; settings: read-out: TGI
[27] = Half life in NOD/SCID mouse plasma xenografted with human MV4-11 cells at 4.5 mg/kg, po measured up to 24 hrs by LC-MS/MS analysis; format: ADME, organism-based
[28] = Half life in NOD/SCID mouse tumor xenografted with human MV4-11 cells at 0.5 mg/kg, po measured up to 24 hrs by LC-MS/MS analysis; format: ADME, organism-based, Neoplasm
[29] = Cmax in NOD/SCID mouse plasma xenografted with human MV4-11 cells at 0.5 mg/kg, po measured up to 24 hrs by LC-MS/MS analysis; format: ADME, organism-based
[30] = Cmax in NOD/SCID mouse plasma xenografted with human MV4-11 cells at […], po measured up to 24 hrs by LC-MS/MS analysis; format: ADME, organism-based; settings: dose 1.5 mg/kg
[31] = Cmax in NOD/SCID mouse tumor xenografted with human MV4-11 cells at 4.5 mg/kg, po measured up to 24 hrs by LC-MS/MS analysis; format: ADME, organism-based, Neoplasm
[32] = AUC (0 to t) in NOD/SCID mouse tumor xenografted with human MV4-11 cells at 0.5 mg/kg, po measured up to 24 hrs by LC-MS/MS analysis; format: ADME, organism-based, Neoplasm
[33] = AUC (0 to t) in NOD/SCID mouse tumor xenografted with human MV4-11 cells at […], po measured up to 24 hrs by LC-MS/MS analysis; format: ADME, organism-based, Neoplasm; settings: dose 1.5 mg/kg
[34] = test system: NCI-H460; assay: cells; settings: Homo sapiens, NCI-H460, 72 h
Description: Antiproliferative activity against human NCI-H460 cells assessed as inhibition of cell growth incubated for 72 hrs by celltiter-glo luminescent cell viability assay

[35] = test system: A2780; assay: cells; settings: Homo sapiens, A2780, 72 h
Description: Antiproliferative activity against human A2780 cells assessed as inhibition of cell growth incubated for 72 hrs by celltiter-glo luminescent cell viability assay

[36] = test system: SW-620; assay: cells; settings: Homo sapiens, SW-620, 72 h
Description: Antiproliferative activity against human SW620 cells assessed as inhibition of cell growth incubated for 72 hrs by celltiter-glo luminescent cell viability assay

[37] = test system: U-87 MG; assay: cells; settings: Homo sapiens, 72 h
Description: Antiproliferative activity against human U-87 MG cells assessed as inhibition of cell growth incubated for 72 hrs by celltiter-glo luminescent cell viability assay

[38] = test system: U-251; assay: cells; settings: Homo sapiens, U-251, 72 h
Description: Antiproliferative activity against human U-251 cells assessed as inhibition of cell growth incubated for 72 hrs by celltiter-glo luminescent cell viability assay

[39] = test system: BaF3; assay: cells; settings: Mus musculus, BaF3, 72 h

Receptor-type tyrosine-protein kinase FLT3 (Homo sapiens), P36888 [UNDEFINED MUTATION], sequence (P36888 whole entry, looked up, change not shown): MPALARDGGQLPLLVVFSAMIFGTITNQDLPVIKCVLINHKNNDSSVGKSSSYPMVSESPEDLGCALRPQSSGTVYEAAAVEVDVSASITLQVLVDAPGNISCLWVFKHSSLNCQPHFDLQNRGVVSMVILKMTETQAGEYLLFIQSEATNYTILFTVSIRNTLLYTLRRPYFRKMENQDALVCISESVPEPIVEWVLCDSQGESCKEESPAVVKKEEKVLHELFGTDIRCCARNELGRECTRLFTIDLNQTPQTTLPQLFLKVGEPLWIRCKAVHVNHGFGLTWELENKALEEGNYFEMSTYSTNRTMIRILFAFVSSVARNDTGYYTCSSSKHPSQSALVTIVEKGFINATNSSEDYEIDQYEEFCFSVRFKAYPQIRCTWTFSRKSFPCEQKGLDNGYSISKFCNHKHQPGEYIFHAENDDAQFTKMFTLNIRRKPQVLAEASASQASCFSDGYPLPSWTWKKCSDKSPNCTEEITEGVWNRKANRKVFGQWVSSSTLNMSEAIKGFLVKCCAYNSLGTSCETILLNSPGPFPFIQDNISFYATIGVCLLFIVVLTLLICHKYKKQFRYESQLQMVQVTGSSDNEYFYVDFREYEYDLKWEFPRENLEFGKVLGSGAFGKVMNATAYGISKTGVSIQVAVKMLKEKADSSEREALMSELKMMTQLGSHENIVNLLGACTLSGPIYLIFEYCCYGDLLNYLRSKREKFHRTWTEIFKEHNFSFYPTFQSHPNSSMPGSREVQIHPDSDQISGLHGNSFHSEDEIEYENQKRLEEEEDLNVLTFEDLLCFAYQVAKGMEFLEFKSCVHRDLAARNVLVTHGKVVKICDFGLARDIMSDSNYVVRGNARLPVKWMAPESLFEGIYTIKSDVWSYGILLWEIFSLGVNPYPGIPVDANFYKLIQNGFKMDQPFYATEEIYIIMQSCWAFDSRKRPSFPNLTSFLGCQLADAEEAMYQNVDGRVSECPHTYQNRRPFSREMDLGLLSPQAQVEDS
Cytochrome P450 2C8, sequence (P10632 whole entry): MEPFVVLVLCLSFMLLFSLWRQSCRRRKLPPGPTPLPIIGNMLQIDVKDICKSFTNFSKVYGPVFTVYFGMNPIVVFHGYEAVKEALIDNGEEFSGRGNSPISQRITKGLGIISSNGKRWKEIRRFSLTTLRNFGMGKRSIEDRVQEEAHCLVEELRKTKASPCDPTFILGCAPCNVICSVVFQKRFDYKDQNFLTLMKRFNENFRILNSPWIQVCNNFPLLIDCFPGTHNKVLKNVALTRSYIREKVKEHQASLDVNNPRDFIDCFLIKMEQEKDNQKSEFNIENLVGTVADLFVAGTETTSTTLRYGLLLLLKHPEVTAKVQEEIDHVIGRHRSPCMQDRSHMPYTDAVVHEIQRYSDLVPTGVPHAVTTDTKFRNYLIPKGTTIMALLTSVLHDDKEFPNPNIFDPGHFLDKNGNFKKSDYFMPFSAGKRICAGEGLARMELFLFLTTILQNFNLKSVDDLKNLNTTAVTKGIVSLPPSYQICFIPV
Proto-oncogene tyrosine-protein kinase receptor Ret, sequence (P07949 29-1114 G691S limits assumed): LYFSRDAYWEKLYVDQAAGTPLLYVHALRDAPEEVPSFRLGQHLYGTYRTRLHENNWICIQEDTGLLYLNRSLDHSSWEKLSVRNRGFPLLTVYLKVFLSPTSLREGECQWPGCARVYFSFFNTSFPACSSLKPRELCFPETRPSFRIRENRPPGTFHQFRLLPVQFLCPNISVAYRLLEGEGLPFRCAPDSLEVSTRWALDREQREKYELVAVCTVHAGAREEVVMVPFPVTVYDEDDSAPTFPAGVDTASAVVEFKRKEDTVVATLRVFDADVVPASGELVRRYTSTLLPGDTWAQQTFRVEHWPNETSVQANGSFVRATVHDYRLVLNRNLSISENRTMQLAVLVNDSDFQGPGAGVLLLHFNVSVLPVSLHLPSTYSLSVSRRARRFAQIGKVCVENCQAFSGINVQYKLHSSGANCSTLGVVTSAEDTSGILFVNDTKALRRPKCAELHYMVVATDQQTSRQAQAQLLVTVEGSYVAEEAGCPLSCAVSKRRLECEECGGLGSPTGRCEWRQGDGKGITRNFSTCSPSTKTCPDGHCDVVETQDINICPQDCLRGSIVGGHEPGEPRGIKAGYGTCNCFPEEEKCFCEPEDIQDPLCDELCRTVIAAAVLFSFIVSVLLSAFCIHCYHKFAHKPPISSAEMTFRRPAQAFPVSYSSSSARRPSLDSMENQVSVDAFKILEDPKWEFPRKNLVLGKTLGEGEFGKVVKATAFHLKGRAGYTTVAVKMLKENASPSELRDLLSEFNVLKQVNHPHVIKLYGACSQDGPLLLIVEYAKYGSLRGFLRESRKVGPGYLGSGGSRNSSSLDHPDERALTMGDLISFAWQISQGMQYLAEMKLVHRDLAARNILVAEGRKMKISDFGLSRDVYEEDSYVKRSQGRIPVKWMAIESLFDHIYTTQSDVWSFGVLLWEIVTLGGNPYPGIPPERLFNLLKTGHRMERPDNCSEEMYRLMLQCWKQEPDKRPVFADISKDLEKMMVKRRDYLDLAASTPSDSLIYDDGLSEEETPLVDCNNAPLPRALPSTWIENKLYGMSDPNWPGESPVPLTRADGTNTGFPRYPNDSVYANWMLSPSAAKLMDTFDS
Receptor-type tyrosine-protein kinase FLT3 (Homo sapiens), sequence (P36888 whole entry, the tested form may be a part): as the sequence (P36888 whole entry, looked up, change not shown) above
Cytochrome P450 3A4, sequence (P08684 whole entry): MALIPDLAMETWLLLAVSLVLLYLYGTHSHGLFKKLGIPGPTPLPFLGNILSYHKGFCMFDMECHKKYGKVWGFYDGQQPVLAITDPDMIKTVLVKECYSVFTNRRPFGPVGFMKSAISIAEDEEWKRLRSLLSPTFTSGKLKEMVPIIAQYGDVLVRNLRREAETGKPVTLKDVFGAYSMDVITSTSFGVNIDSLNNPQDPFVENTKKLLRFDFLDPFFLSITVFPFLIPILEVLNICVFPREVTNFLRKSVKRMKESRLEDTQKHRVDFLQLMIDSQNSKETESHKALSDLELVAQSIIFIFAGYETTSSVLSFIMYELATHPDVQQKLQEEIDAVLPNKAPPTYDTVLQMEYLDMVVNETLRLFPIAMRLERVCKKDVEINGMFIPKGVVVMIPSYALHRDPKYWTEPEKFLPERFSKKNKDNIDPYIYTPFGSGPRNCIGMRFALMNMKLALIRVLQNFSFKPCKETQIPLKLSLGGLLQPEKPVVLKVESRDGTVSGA
Discoidin domain-containing receptor 2, sequence (Q16832 22-855 T654M limits assumed): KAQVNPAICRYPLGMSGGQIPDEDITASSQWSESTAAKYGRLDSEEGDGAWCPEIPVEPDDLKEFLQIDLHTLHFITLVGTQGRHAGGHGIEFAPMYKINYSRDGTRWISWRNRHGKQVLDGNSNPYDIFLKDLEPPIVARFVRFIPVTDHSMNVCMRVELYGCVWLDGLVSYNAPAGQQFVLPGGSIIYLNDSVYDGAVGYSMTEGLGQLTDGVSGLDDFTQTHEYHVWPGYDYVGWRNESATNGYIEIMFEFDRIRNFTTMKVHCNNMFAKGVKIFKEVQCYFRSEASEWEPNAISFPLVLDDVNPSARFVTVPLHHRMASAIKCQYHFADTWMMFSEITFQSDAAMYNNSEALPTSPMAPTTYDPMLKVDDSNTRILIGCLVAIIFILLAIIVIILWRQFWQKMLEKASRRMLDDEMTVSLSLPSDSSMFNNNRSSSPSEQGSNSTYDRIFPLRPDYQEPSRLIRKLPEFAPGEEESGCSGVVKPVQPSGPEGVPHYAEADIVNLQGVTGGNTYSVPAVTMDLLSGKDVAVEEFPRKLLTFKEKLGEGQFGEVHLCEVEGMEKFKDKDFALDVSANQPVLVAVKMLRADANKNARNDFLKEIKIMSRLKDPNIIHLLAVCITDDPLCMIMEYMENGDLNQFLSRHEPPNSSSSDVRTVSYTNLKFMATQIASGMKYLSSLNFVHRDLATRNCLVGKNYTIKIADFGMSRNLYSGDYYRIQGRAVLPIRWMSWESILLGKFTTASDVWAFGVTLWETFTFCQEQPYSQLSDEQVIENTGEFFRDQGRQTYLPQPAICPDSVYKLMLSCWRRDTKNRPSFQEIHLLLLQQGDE
Cytochrome P450 2B6, sequence (P20813 whole entry): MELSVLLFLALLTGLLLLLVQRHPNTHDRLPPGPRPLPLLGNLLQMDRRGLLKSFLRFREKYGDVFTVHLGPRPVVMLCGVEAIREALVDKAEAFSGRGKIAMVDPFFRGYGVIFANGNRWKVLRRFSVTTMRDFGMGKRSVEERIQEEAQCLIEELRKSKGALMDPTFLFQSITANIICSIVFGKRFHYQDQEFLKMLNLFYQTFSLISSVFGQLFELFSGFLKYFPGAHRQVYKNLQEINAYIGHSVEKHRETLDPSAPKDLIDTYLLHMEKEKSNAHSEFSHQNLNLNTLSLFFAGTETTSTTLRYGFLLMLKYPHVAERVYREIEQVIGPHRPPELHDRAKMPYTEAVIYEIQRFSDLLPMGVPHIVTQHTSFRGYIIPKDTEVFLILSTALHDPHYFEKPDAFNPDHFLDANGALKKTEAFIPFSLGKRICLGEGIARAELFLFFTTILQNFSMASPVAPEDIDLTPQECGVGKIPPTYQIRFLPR
Cytochrome P450 2D6, sequence (P10635 whole entry): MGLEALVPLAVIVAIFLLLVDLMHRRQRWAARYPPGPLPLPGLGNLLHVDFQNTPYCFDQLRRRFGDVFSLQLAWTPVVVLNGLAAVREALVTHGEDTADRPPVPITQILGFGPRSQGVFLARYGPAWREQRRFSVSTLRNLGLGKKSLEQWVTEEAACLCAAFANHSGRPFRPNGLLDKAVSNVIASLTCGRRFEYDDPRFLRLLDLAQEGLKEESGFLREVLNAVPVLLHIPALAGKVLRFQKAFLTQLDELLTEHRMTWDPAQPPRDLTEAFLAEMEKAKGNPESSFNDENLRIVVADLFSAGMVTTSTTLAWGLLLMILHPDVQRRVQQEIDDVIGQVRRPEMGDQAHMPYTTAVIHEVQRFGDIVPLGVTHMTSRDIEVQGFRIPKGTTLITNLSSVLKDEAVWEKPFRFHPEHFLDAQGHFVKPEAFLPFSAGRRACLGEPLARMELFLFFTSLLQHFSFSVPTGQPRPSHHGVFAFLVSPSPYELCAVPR

`CC(C)(C)c1cc(NC(=O)Nc2ccc(C#Cc3ccc(OCCCN4CCOCC4)cc3)cc2)no1` showed a Cmax [1] of 895 ng/mL, an AUC(0-t) at 24 h [2] of 8310 ng·h/mL and a Tmax [3] of 4.98 min. The Vd [4] was 1.36 L/kg, the Tmax [5] was 0.5 h and the Tmax [6] was 4.98 min. The Tmax [7] was 1.67 h, the half-life [8] was 7.41 h and the bioavailability [9] was 71.9%. It also gave a half-life [10] of 8.94 h, an IC50 [11] of 0.9 nM and an IC50 [12] of 47.6 nM. For the same compound, the inhibition [13] was “inactive”, the inhibition [14] was “inactive” and the inhibition [15] was “inactive”. It also gave an IC50 [16] of 422 nM, an IC50 [17] of 283 nM and an IC50 [18] of 439 nM. It also gave an IC50 [19] greater than 33300 nM, an IC50 [20] greater than 33300 nM and an IC50 [21] greater than 33300 nM. For the same compound, the IC50 [22] was greater than 33300 nM, the Activity [23] was “Non-toxic” and the inhibition in vivo at 0.5 mg/kg/day [24] was 39%. The inhibition in vivo at […] [25] was 52%, the inhibition in vivo at 4.5 mg/kg/day [26] was 94% and the half-life [27] was 3.82 h. For the same compound, the half-life [28] was 11.3 h, the Cmax [29] was 20.5 ng/mL and the Cmax at 24 h [30] was 52.8 ng/mL. The Cmax [31] was 307 ng/mL, the AUC(0-t) at 24 h [32] was 380 ng·h/mL and the AUC(0-t) at 24 h [33] was 1470 ng·h/mL. It also gave an IC50 [34] of 7800 nM, an IC50 [35] of 7200 nM and an IC50 [36] greater than 10000 nM. For the same compound, the IC50 [37] was greater than 10000 nM, the IC50 [38] was greater than 10000 nM and the IC50 [39] was 4.1 nM.

Reference: ChEMBL document CHEMBL6134864, “Discovery of FLT3-ITD Inhibitor Clifutinib: A Novel Biphenylacetylene Urea Derivative in Clinical Trials for the Treatment of Relapsed/Refractory FLT3-ITD+ Acute Myeloid Leukemia” (J Med Chem, 2025)
